The source of these data is paper PMC2774256 (Bioorganic & medicinal chemistry, 2009).

For series [1], the system named is BxPC-3 pancreatic cancer cells. The series can be described thus: 3H-thymidine incorporation/growth inhibition assay. (Uptake of a labelled nucleoside into DNA is a usual measure of proliferation.)
Series [2] has as its system PL-45 pancreatic cancer cells. The series can be described thus: 3H-thymidine incorporation/growth inhibition assay.

Square brackets hold non-standard residues; d marks the D form. Ends that are not written are not given here. * marks the point of attachment. dNMeF = CN[C@H](Cc1ccccc1)C(=O)O; Cha = N[C@@H](CC1CCCCC1)C(=O)O; NMeL = CN[C@@H](CC(C)C)C(=O)O; dNMeV = CN[C@@H](C(=O)O)C(C)C; NMeV = CN[C@H](C(=O)O)C(C)C; Cbz = O=C(OCc1ccccc1)*; Bn = c1ccc(C*)cc1

As for FLVK(Cbz)[NMeL] [Compound 68], the “cytotoxicity / growth inhibition in words” value in series [1] and in series [2] was “not toxic” each time.

On to FL[dV][dL]L [Compound 37], for which the “cytotoxicity / growth inhibition in words” value in series [1] and in series [2] was “not potent” each time.

Regarding [dF]L[NMeV][dL][dF] [Compound 61], the “cytotoxicity / growth inhibition in words” value in series [1] and in series [2] was “relatively non-toxic” throughout.

As for F[dNMeF]V[Cha]S(Bn) [Compound 60], the “cytotoxicity / growth inhibition in words” value in series [1] and in series [2] was “not effective” each time.

Consider F[dNMeF][dV]LL [Compound 32], for which the entries for the “cytotoxicity / growth inhibition in words” value in series [1] and in series [2] were “very poor cytotoxicity” and “cytotoxic”, respectively.

Consider [dY][dNMeF]VLL [Compound 15], for which the “cytotoxicity / growth inhibition in words” value in series [1] is reported as “very poor cytotoxicity”; in series [2], “cytotoxic”.

For F[dNMeF]V[Cha]L [Compound 49], the “cytotoxicity / growth inhibition in words” value in series [1] and in series [2] was “underwhelming cytotoxicity” throughout.

As to cyclo(FL[dNMeV][dK][dF]) [Compound 64], the “cytotoxicity / growth inhibition in words” value in series [1] and in series [2] was “not toxic” in each case.

Turning to FL[NMeV]L[dF] [Compound 62], the “cytotoxicity / growth inhibition in words” value in series [1] and in series [2] was “relatively non-toxic” each time.
